The nature of test [1]: inhibitors of PAF-induced NFkB signaling in CF airway cells, dose response, cell-based, uHTS hits, panel, cytotoxicity readout (AID 624344). As to conditions: CF bronchial epithelial cells, PAF-induced NFkB reporter inhibition; with PAF, mean of runs.
The subject of the next test is Cytotoxicity. The test is described as above. The note with it: CF bronchial epithelial cells, mean of runs.

One may read the IC50 as the concentration at which inhibition is half-maximal.

Activity calls are given as the source filed them. How the calls were made is not given here. A value given as a limit tells only on which side of the number the result lay.

As to `Cc1nn(-c2nccs2)c2c1C(=O)CC(C)(C)C2Br` (configuration not stated), the 50% inhibitory concentration (IC50) is 5.11 µM in test [1] and 38.8 µM with Cytotoxicity.

Take `COC(=O)c1c(C)n(-c2ccc(OC)cc2)c2ccc(O)cc12`: the results for the 50% inhibitory concentration (IC50) (in test [1]; in the test on Cytotoxicity) were 2.37 µM and 42.2 µM, respectively.

Turning to `CCOC(=O)N1CCC(NC(=O)c2ccc3c(c2)N=C(C)c2c(C)ccc(C)c2S3)CC1`, the IC50 was 11 µM in test [1] and 41.4 µM with Cytotoxicity.

As to `Cc1ccc(NC(=O)CSc2ncnc3ccccc23)cc1S(=O)(=O)N1CCOCC1`, the IC50 is 4.14 µM in test [1] and 34.6 µM in the test on Cytotoxicity.

Regarding `O=C(CC12CC3CC(CC(C3)C1)C2)Nc1nncs1`, in test [1], the IC50 result was “inactive”. Besides, the IC50 in the test with Cytotoxicity was 54.5 µM (inactive).

As for `Cc1cccc(N=c2oc3cc(O)ccc3cc2C(N)=O)c1`, the figures for the half-maximal inhibitory concentration (IC50) (in test [1]; with Cytotoxicity) were 2.77 µM and 45.3 µM, respectively.

Regarding `CCOC(=O)C1=C(CC)Nc2ccccc2N=C1NC(=O)Nc1ccc(Cl)c(Cl)c1`, the IC50 in test [1] was 2.74 µM; in the test with Cytotoxicity, 6.06 µM.

Regarding `CCOC(=O)c1c(C)c2c(=O)[nH]cnc2n1-c1ccccc1`, the results for the half-inhibitory concentration (IC50) (in test [1]; in the test with Cytotoxicity) were 1.89 µM and 13.9 µM, respectively.

`CN(CCC#N)C(=O)COC(=O)c1ccccc1C(=O)c1ccc(Cl)c([N+](=O)[O-])c1`: the IC50 is 5.31 µM in test [1] and 16.5 µM with Cytotoxicity.

Regarding `Cc1ccc2nc(C(F)(F)F)c(C#N)c(N)c2c1`, the IC50 in test [1] was 3.26 µM; with Cytotoxicity, 9.13 µM.

Consider `Cc1ccc(NC(=O)Nc2nnc(-c3ccncc3)s2)cc1`, for which the 50% inhibitory concentration (IC50) was 5.53 µM in test [1] and 11 µM with Cytotoxicity.

As to `COc1ccc(C(c2nnnn2-c2ccc(OC)cc2)N2CCC(n3c(=O)[nH]c4ccccc43)CC2)cc1` (configuration not stated), the values for the half-maximal inhibitory concentration (IC50) (in test [1]; in the test with Cytotoxicity) were 5.8 µM and 11.7 µM, respectively.

In the case of `O=[N+]([O-])c1ccc(Oc2ccc(F)cc2Br)c2ccncc12`, the IC50 in test [1] is 3.97 µM; in the test with Cytotoxicity, 38.6 µM.

`Cc1ccc(NC(=O)c2ccccc2NS(=O)(=O)c2ccc(Cl)s2)cc1S(=O)(=O)N1CCOCC1`: the 50% inhibitory concentration (IC50) is 3.36 µM in test [1] and 8.23 µM in the test on Cytotoxicity.

For the compound `COc1cc(C2c3cc4c(cc3C(O)C3COC(=O)C23)OCO4)cc(OC)c1OC` (configuration not stated), the IC50 (in test [1]; in the test on Cytotoxicity) was > 79 µM (inactive) in each case.

Consider `O=C(NNc1ccccc1Cl)C(O)(c1cccc(C(F)(F)F)c1)c1cccc(C(F)(F)F)c1`, for which the half-inhibitory concentration (IC50) in test [1] was 13.3 µM; in the test with Cytotoxicity it was 7.25 µM.

With `COc1ccccc1Cn1c(=O)c2ccccc2n2c(Sc3ncnc4sccc34)nnc12`, the IC50 is 3.9 µM in test [1] and 5.9 µM in the test with Cytotoxicity.

Take `Oc1ccc(Br)cc1-c1nc2cnccn2c1NC1CCCC1`: the IC50 is 3.04 µM in test [1] and 14.5 µM in the test with Cytotoxicity.

As to `O=c1[nH]c(C2CCN(S(=O)(=O)c3ccc4c(c3)OCCO4)CC2)nc2c1nnn2Cc1c(F)cccc1Cl`, the IC50 in test [1] is 5.74 µM; in the test on Cytotoxicity it was 44.5 µM.

As for `CS(=O)(=O)c1ccc2nc(NC(=O)CCS(=O)(=O)c3ccccc3)sc2c1`, the half-inhibitory concentration (IC50) in test [1] was 4.88 µM; in the test on Cytotoxicity, > 79 µM (inactive).

`N#CC1c2ccccc2-n2nncc2CN1Cc1cc(Cl)cc(Cl)c1` (configuration not stated): the concentration for half-maximal inhibition (IC50) in test [1] was 2.16 µM; with Cytotoxicity, 1.6 µM.

In the case of `COc1cc2cncc(Cc3ccc(Cl)cc3)c2cc1OC`, the half-maximal inhibitory concentration (IC50) in test [1] was 2.87 µM; in the test on Cytotoxicity it was 20.9 µM.

On to `CC(C)(CO)CNc1ccn2nccc2n1`, for which the IC50 in test [1] is 5.29 µM; in the test on Cytotoxicity it was 76.7 µM (inactive).

With `O=[N+]([O-])c1cccc(/C=N/Nc2cc(N3CCOCC3)ncn2)c1`, the half-maximal inhibitory concentration (IC50) in test [1] was 3.21 µM; in the test with Cytotoxicity, 19.1 µM.

For `CC(=O)c1cccc(NC(=O)COC(=O)c2ccc(S(C)(=O)=O)c([N+](=O)[O-])c2)c1`, the IC50 in test [1] was 5.26 µM; in the test on Cytotoxicity, 12.6 µM.

Consider `CCOC(=O)C1=C(C)Nc2ccccc2N=C1NC(=O)c1oc2ccccc2c1COC`, for which the IC50 is 4.25 µM in test [1] and 30.1 µM in the test on Cytotoxicity.

As to `Cc1nc([N+](=O)[O-])c(Sc2nc3ccc([N+](=O)[O-])cc3[nH]2)n1Cc1ccccc1`, the IC50 is 3.5 µM in test [1] and 8.03 µM in the test with Cytotoxicity.

Turning to `O=c1c(-c2c(O)cc(O)c3c2O[C@H](c2ccc(O)cc2)CC3)c(-c2ccc(O)cc2)oc2cc(O)cc(O)c12`, the IC50 in test [1] is 1.44 µM; in the test on Cytotoxicity, 5.44 µM.

For `O=C(Nc1cccc(Cl)c1)Nc1cc(S(=O)(=O)N2CCCCC2)ccc1Cl`, the half-inhibitory concentration (IC50) in test [1] was 6.4 µM; in the test with Cytotoxicity it was 9.07 µM.

Regarding `COc1cc(-c2cc(C(=O)Nc3ccc(S(=O)(=O)NCc4ccco4)cc3)c3ccccc3n2)cc(OC)c1OC`, the half-inhibitory concentration (IC50) in test [1] is 3.96 µM; in the test with Cytotoxicity it was 7.44 µM.

On to `CC1CCN(CC(CS(=O)(=O)c2ccc([N+](=O)[O-])cc2)N2CCC(C)CC2)CC1` (configuration not stated), for which the IC50 was 2.44 µM in test [1] and 3.57 µM with Cytotoxicity.

As for `COc1ccc(Cc2nnc(SCc3ccc([N+](=O)[O-])cc3)o2)cc1`, the IC50 in test [1] was 1.76 µM; with Cytotoxicity it was 41.8 µM.

Turning to `O=c1[nH]c2ccccc2n1C1CCN(C(c2cccc3ccccc23)c2nnnn2Cc2ccccc2)CC1` (configuration not stated), the results for the half-inhibitory concentration (IC50) (in test [1]; in the test on Cytotoxicity) were 3.25 µM and 10 µM, respectively.

Consider `COc1cc2c(Cc3ccccc3)cncc2cc1O`, for which the concentration for half-maximal inhibition (IC50) in test [1] was 6.42 µM; with Cytotoxicity, 36.8 µM.

With `CC1CCN(Cc2c(C(=O)N/N=C/c3ccc(C(C)(C)C)cc3)nnn2-c2nonc2N)CC1`, the IC50 in test [1] was 14.6 µM; with Cytotoxicity, 29.8 µM.

As for `COc1ccc(Oc2cc(NC(=O)c3nn(C)cc3[N+](=O)[O-])cc([N+](=O)[O-])c2)cc1`, the half-maximal inhibitory concentration (IC50) is 3.27 µM in test [1] and 1.69 µM in the test with Cytotoxicity.

As for `COc1cccc2c(SCC(=O)N/N=C/c3ccccc3)cc(C)nc12`, the half-maximal inhibitory concentration (IC50) is 6.95 µM in test [1] and 38.6 µM in the test with Cytotoxicity.

For `CC(=O)c1ccc(-n2c(C)c(C(C)=O)c3cc(O)ccc32)cc1`, the values for the IC50 (in test [1]; in the test with Cytotoxicity) were 1.34 µM and 44.5 µM, respectively.

Take `CCC1(O)CC2CN(CCc3c([nH]c4ccccc34)C(C(=O)OC)(c3cc4c(cc3OC)N(C=O)C3C(O)(C(=O)OC)C(OC(C)=O)C5(CC)C=CCN6CCC43C65)C2)C1` (configuration not stated): the figures for the half-maximal inhibitory concentration (IC50) (in test [1]; with Cytotoxicity) were 3.67 µM and 63.1 µM (inactive), respectively.

On to `Cc1nn(-c2ccccn2)c2c1-c1nc(N)ncc1CC2`, for which the 50% inhibitory concentration (IC50) is 6.76 µM in test [1] and 65.3 µM (inactive) with Cytotoxicity.

Consider `COc1ccc(-c2cc(=O)oc3cc(O)ccc23)cc1`, for which the IC50 is 1.89 µM in test [1] and 46.9 µM in the test on Cytotoxicity.

As to `COc1ccc(C(=O)Nc2cccc(NC(=O)c3ccc(OC)c(OC)c3)n2)cc1OC`, the IC50 is 3.69 µM in test [1] and 1.49 µM in the test on Cytotoxicity.

In the case of `COc1ccc(OC)c(N(CCN2C(=O)c3ccccc3C2=O)C(=O)CCl)c1`, the concentration for half-maximal inhibition (IC50) was 4.03 µM in test [1] and 4.33 µM with Cytotoxicity.

Turning to `COc1ccc(-c2[nH]ncc2-c2ccc3c(c2)OCCO3)c(O)c1`, the 50% inhibitory concentration (IC50) in test [1] was 0.186 µM; in the test with Cytotoxicity, 65.4 µM (inactive).

With `Cc1ccc(Cl)cc1-c1cc(C(=O)NCc2cc(C(F)(F)F)cc(C(F)(F)F)c2)[nH]n1`, the concentration for half-maximal inhibition (IC50) was 8.92 µM in test [1] and 16.6 µM with Cytotoxicity.

As for `CCc1cc2c(Sc3nc4ccccc4s3)ncnc2s1`, the concentration for half-maximal inhibition (IC50) in test [1] is 1.03 µM; in the test on Cytotoxicity, 1.74 µM.

With `Cn1c(SC2=CS(=O)(=O)c3ccccc32)nc2ccccc21`, the results for the 50% inhibitory concentration (IC50) (in test [1]; in the test on Cytotoxicity) were 1.83 µM and 7.01 µM, respectively.

On to `COc1cccc(-c2nnc3n2N=C(C(C)(C)C)CS3)c1`, for which the values for the IC50 (in test [1]; in the test with Cytotoxicity) were 0.442 µM and 11.4 µM, respectively.

`COc1ccc(-c2cn[nH]c2-c2ccc(OCc3ccccc3)cc2O)cc1`: the half-inhibitory concentration (IC50) in test [1] was 3.7 µM; in the test with Cytotoxicity, 16.7 µM.

As to `CC(C)(C)C(=O)/C(=C/c1ccncc1)n1cncn1`, the IC50 in test [1] is 2.22 µM; with Cytotoxicity it was 15.1 µM.

As to `CC(=O)Oc1c(C(=O)c2nnc(C)o2)c(=O)n(Cc2ccccc2)c2ccccc12`, the IC50 in test [1] was 2.36 µM; in the test with Cytotoxicity it was 14.9 µM.

Regarding `CC(C)(C)OC(=O)NCCCCCNC(=O)c1nc[nH]c1C(=O)NCC(=O)OCc1ccccc1`, the half-maximal inhibitory concentration (IC50) in test [1] is 3.56 µM; in the test on Cytotoxicity, 9.6 µM.

Take `COc1ccccc1NS(=O)(=O)c1ccc(-c2cnc(C3CC3)o2)cc1`: the IC50 in test [1] is 16.7 µM; in the test with Cytotoxicity, > 79 µM (inactive).

In the case of `Fc1ccc(Nc2ccnc(Nc3ccc(F)cc3)n2)cc1`, the IC50 is 7.91 µM in test [1] and 14 µM with Cytotoxicity.

On to `COc1ccc(S(=O)(=O)N(C(C)=O)c2ccc(OC(C)=O)c3ccccc23)cc1[N+](=O)[O-]`, for which the IC50 in test [1] was 3.38 µM; with Cytotoxicity it was 6.46 µM.

Regarding `COc1cccc(/C=N/n2c(C3CCCCC3)n[nH]c2=S)c1`, the IC50 in test [1] was 3.97 µM; in the test with Cytotoxicity, 33.7 µM.

As for `COc1cccc(-c2ccc3ncnc(NCc4cccnc4)c3c2)c1`, the IC50 is 1.23 µM in test [1] and 11.3 µM in the test on Cytotoxicity.

On to `COc1ccc(OC)c(C2CC(=O)c3c([nH]c(C(=O)OC(C)C)c3C)C2)c1` (configuration not stated), for which the IC50 result in test [1] is “inactive”. In addition, the IC50 in the test on Cytotoxicity is > 79 µM (inactive).

With `CCOC(=O)/C=c1/s/c(=C\c2c(OC)ccc3ccccc23)c(=O)n1CC(=O)NCC1CCCO1` (configuration not stated), the IC50 (in test [1]; in the test on Cytotoxicity) was > 79 µM (inactive) throughout.

With `N=C1N(c2ccccc2)C(=S)C(=Nc2ccccc2)N1c1ccccc1`, the results for the IC50 (in test [1]; in the test with Cytotoxicity) were 14.7 µM and 33 µM, respectively.

With `COc1ccc(C(C(=O)NCC2CCCO2)N(Cc2cccs2)C(=O)c2snc(C(N)=O)c2N)cc1` (configuration not stated), the results for the IC50 (in test [1]; in the test on Cytotoxicity) were 3.11 µM and 44.2 µM, respectively.

On to `COc1cccc2sc(N(CCCN(C)C)C(=O)CCS(=O)(=O)c3ccccc3)nc12`, for which the 50% inhibitory concentration (IC50) was 2.34 µM in test [1] and 4.84 µM in the test on Cytotoxicity.

As to `CCNC(=O)C1(C)CCCN(Cc2ccc(-c3ccccc3)o2)C1` (configuration not stated), the IC50 in test [1] is 9 µM; in the test with Cytotoxicity, > 79 µM (inactive).

As to `CC(C)Cc1nc2oc3c(NCC4CCCO4)ncnc3c2c2c1CCC2` (configuration not stated), the concentration for half-maximal inhibition (IC50) in test [1] was 2.87 µM; in the test on Cytotoxicity, 3.76 µM.

Consider `CC(C)CNC(=O)c1coc(=O)c(Br)c1`, for which the 50% inhibitory concentration (IC50) was 4.35 µM in test [1] and 8.73 µM with Cytotoxicity.

Regarding `C=CC[C@@H](CC(=O)N[C@H](CO)Cc1ccccc1)C(=O)NC[C@H](OC(=O)[C@@H](CC=C)Cc1ccc(F)cc1)c1ccccc1`, the IC50 in test [1] was 5.6 µM; in the test on Cytotoxicity, 8.91 µM.
